Laboratory results reported in article PMC11304238, “Formulate Adaptive Biphasic Scaffold via Sequential Protein‐Instructed Peptide Co‐Assembly” (Advanced Science, 2024).
Where a SMILES comes first, the peptide text is derived from it. [ ]: non-standard residue; d: D form. The star is where a group is joined. Acetyl(2-naphthyl) = O=C(Cc1ccc2ccccc2c1)*; pY = N[C@@H](Cc1ccc(OP(=O)(O)O)cc1)C(=O)O

What was measured:
[1] = test system: hMSCs; experiment: hMSC biocompatibility (viability, caspase 3/7, Ki67); format: cell-based, human; conditions: 3-day treatment at various concentrations (25 to 500 µM), basal medium, WST-1 viability, caspase 3/7 and Ki67 at 200 µM, n = 3
Description: (§1) Cells were seeded onto a 96‐well flat‐bottom tissue culture plate (Corning, Falcon) at a density of 0.5 × 10^4 cells cm^−2 and incubated overnight to facilitate cell adhesion. The medium was then replaced with osteogenic medium containing various peptide compounds at concentrations ranging from 25 to 500 µM. As a control, cells were cultured in osteogenic medium supplemented with an equal volume of PBS. Subsequently, the cells were cultured for an additional 72 h, after which their viability was assessed using a WST‐1 assay kit (Roche Diagnostics, IN).
Figure S12. Chemical structure of peptide P6.
Figure S13. Chemical structure of peptide P7.
Figure S14. 3-day hMSCs viability upon the treatment of peptides P1, P2, P3, and control peptides P5, 1:1 mixture of P6/P7 at various concentrations in basal medium (mean ± SD, n = 3).
Figure S15. Bright field images and fluorescence images of hMSCs upon the treatment of peptides P1, P2, P3, and control peptides P5, 1:1 mixture of P6/P7 at 200 µM in basal medium for 3 days and stained with caspase 3/7 (green). […]
Figure S16. (a) Fluorescence images of hMSCs upon the treatment of peptides P1, P2, P3, and control peptides P5, 1:1 mixture of P6/P7 at 200 µM in basal medium for 3 days and co-stained with hochest (blue) and Ki67 (red). […] (b) Quantification of Ki67 positive ratio in hMSCs upon the treatments of panel a (mean ± SD, n = 3). […]

[2] = test system: hMSCs; format: cell-based, human; conditions: hMSCs pre-cultured 3 days with P3, P5 or P6/P7 (200 µM), then 3 days P4 at various concentrations, osteogenic medium, n = 3
Description: as §1
Figure S22. […]
(§2) Figure S23. Bright field images and fluorescence images of hMSCs upon the treatment of peptides P3, P5, and mixture of P6/P7 at a concentration of 200 µM for 3 days, followed with another 3-day treatment of P4 at a concentration of 200 µM in osteogenic medium. ‘Undifferentiated’ represents cell cultured in basal medium; ‘Ctrl’ represents cell cultured in osteogenic medium upon the treatment of 1xPBS buffer. […]
as §2, with “S24. (a) Fluorescence” for “S23. Bright field images and fluorescence”

| Compound | biocompatibility with hMSCs [1] | cytotoxicity of P4 on pre-cultured hMSCs [2] |
| --- | --- | --- |
| CC[C@H](C)[C@H](NC(=O)[C@H](CC(C)C)NC(=O)[C@H](CC(C)C)NC(=O)[C@H](CCCCN)NC(=O)[C@@H](NC(=O)[C@H](Cc1ccccc1)NC(=O)[C@H](Cc1ccccc1)NC(=O)[C@H](Cc1ccccc1)NC(=O)[C@H](CCCNC(=N)N)NC(=O)[C@H](CO)NC(=O)[C@H](CCCNC(=N)N)NC(=O)[C@@H](N)CCCCN)[C@@H](C)CC)C(=O)O [P3, KRSRFFFIKLLI] (H-KRSRFFFIKLLI-OH) | good biocompatibility |  |
| O=C(Cc1ccc2ccccc2c1)N[C@@H](Cc1ccccc1)C(=O)N[C@@H](Cc1ccccc1)C(=O)O [P5, NapFF] | good biocompatibility |  |
| O=C(O)CC[C@H](NC(=O)[C@H](Cc1ccc(OP(=O)(O)O)cc1)NC(=O)[C@H](Cc1ccccc1)NC(=O)[C@H](Cc1ccccc1)NC(=O)Cc1ccc2ccccc2c1)C(=O)O [P4, NapFFYpE] ({Acetyl(2-naphthyl)}-FF[pY]E-OH) |  | no cytotoxicity |
